By inhibition is commonly meant the share of the control response that was lost under treatment. Lower therefore signals little suppression.

Calls of active or inactive are those of the source. No cut-off for these calls is given here.

What all share (assay type): functional
The subject of test [1] is EC9706. Description: (§1) Cytotoxicity against human Ec9706 cells at 100 uM after 48 hrs by MTT assay. (In general: Tetrazolium assays rely on reduction of a dye to a coloured formazan, in cell work by metabolically active cells.)
Test [2] has as its system A549. Description: Cytotoxicity against human A549 cells at 100 uM after 48 hrs by MTT assay. Particulars: for inhibition at 100 µM: A549, 48 h.
Test [3] concerns EC9706. Kind of test: (§2) Cytotoxicity against human Ec9706 cells at 50 uM after 48 hrs by MTT assay.
For test [4], the system named is A549. Kind of test: Cytotoxicity against human A549 cells at 50 uM after 48 hrs by MTT assay. Conditions: for inhibition at 50 µM: A549, 48 h.
Test [5] deals with EC9706. Kind of test: (§3) Cytotoxicity against human Ec9706 cells at 400 uM after 48 hrs by MTT assay.
Test [6] concerns A549. Kind of test: Cytotoxicity against human A549 cells at 400 uM after 48 hrs by MTT assay. Particulars: for inhibition at 400 µM: A549, 48 h.
The test system of test [7] is EC9706. Description: (§4) Cytotoxicity against human Ec9706 cells at 200 uM after 48 hrs by MTT assay.
Test [8] deals with A549. Description: Cytotoxicity against human A549 cells at 200 uM after 48 hrs by MTT assay. Particulars: for inhibition at 200 µM: A549, 48 h.
The nature of test [9]: as §3. Conditions: EC9706, 48 h.
Test [10] in a line: as §4. Conditions: EC9706, 48 h.
Test [11] is described as follows: as §1. Conditions: EC9706, 48 h.
Test [12] can be described thus: as §2. Conditions: EC9706, 48 h.

As to `CCCCCCCCCCCCCCCCCC(=O)OCCn1c(=O)c(F)cn([C@H]2CCCO2)c1=O`, the result in the test on EC9706 [1], with A549 [2], in the test on EC9706 [3] and in the test on A549 [4] was inactive.
For the molecule `CCCCCCCCCCCC(=O)OCCn1c(=O)c(F)cn([C@H]2CCCO2)c1=O`, the result with EC9706 [1], in the test with A549 [2], with EC9706 [3] and in the test on A549 [4] was inactive.
With `O=c1c(F)cn([C@H]2CCCO2)c(=O)n1CCO`, the result in the test with EC9706 [5], with A549 [6], in the test with EC9706 [1], in the test on A549 [2], in the test on EC9706 [7] and in the test with A549 [8] was inactive.
Regarding `O=c1[nH]c(=O)n(C2CCCO2)cc1F` (stereo not given) [TEGAFUR], the inhibition at 400 µM in test [9] is 17.4%; with A549 [6] it was 17.8%. The outcome in the test on EC9706 [1] was inactive. Moreover, in the test with A549 [2], the inhibition at 100 µM stood at 12.7%. The inhibition at 200 µM came out at 7.8% in test [10] and 15.2% in the test on A549 [8].
Regarding `CCCCC/C=C\C/C=C\CCCCCCCC(=O)OCCn1c(=O)c(F)cn([C@H]2CCCO2)c1=O`, the inhibition at 400 µM in [9] amounted to 54.4%; in the test with A549 [6] it was 90.7%. Further, the inhibition at 100 µM in test [11] is 14.4%; in the test with A549 [2], 11%. Besides, in the test on EC9706 [3], the outcome was inactive. This molecule displayed an inhibition at 50 µM with A549 [4] of 1.8%. Also, the figures for the inhibition at 200 µM (in test [10]; in the test with A549 [8]) were 31.9% and 24.7%, respectively.
With `CCCCC/C=C\C/C=C\C/C=C\C/C=C\CCCC(=O)OCCn1c(=O)c(F)cn([C@H]2CCCO2)c1=O`, the inhibition at 400 µM in [9] is 69.9%; in the test with A549 [6], 92.1%. The inhibition at 100 µM worked out at 30.8% in [11] and 33.8% in the test on A549 [2]. For the same molecule, the inhibition at 50 µM in [12] was 19.3%; in the test with A549 [4], 1.6%. The figures for the inhibition at 200 µM (in test [10]; in the test on A549 [8]) were 59.9% and 78.2%, respectively.
`CCCCCCCC/C=C\CCCCCCCC(=O)OCCn1c(=O)c(F)cn([C@H]2CCCO2)c1=O`: the inhibition at 100 µM in test [11] turned out to be 4.9%; in the test on A549 [2] it was 4.8%. The values for the inhibition at 50 µM (in test [12]; in the test on A549 [4]) were 3.7% and 2.5%, respectively.
